This is an account of results in patent US8604024B2, “Compounds for the reduction of beta-amyloid production” (Bristol-Myers Squibb Company, priority 2011, dated 2013).

One may read the IC50 as the concentration that inhibits the measured activity by half.

Structures can show the parent of a compound that is named as a salt.

This experiment has as its system Aβ1-42 production in H4 cells stably transfected with APP751 containing the Swedish mutation. Briefly: Cellular assay for inhibition of Aβ1-42 production (H4 APP751 SWE clone 8.20). Type of experiment: cell-based. The note with it: 19 h, H4 APP751 SWE clone 8.20 cells, 19 h incubation; read-out: Aβ42 cellular IC50. The essentials: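 Secreted peptide was quantified with a two-antibody homogeneous format combining Wallac-labelled 565, which recognises the Aβ42 end, and APC-labelled 26D6 at 0.8 and 75 ng/well respectively. Antibodies were diluted in 40 mM Tris-HCl, pH 7.4, 0.2% BSA and left overnight at 4 °C after a 19 h compound incubation.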
As to `C[C@@]12N=C(N)SC[C@@H]1CCOc1ccc(NC(=O)c3ccc(Cl)cn3)cc12` [Example 33b, N-((4aR,11bR)-2-amino-11b-methyl-4a,5,6,11b-tetrahydro-4H-benzo[2,3]oxepino[4,5-d][1,3]thiazin-10-yl)-5-chloropicolinamide], the half-maximal inhibitory concentration (IC50) worked out at 7.8 µM.
Turning to `Cc1ncc(-c2ccc3c(c2)[C@@]2(C)N=C(N)SC[C@H]2CCO3)s1` (relative stereo) [Example 26, rel-(4aS,11bS)-11b-Methyl-10-(2-methylthiazol-5-yl)-4a,5,6,11b-tetrahydro-4H-benzo[2,3]oxepino[4,5-d][1,3]thiazin-2-amine, 2,2,2-trifluoroacetate salt], the IC50 was found to be 8.5 µM.
With `C[C@]12N=C(N)SC[C@H]1CCCc1ccc(NC(=O)c3ccc(Cl)cn3)cc12` (relative stereo) [Example 3, 5-Chloro-pyridine-2-carboxylic acid (rel-(4aS,11bS)-2-amino-11b-methyl-4,4a,5,6,7,11b-hexahydro-3-thia-1-aza-dibenzo[a,c]cyclohepten-10-yl)-amide, 2,2,2-trifluoroacetate], the IC50 amounted to 0.034 µM.
Regarding `C[C@]12N=C(N)SC[C@H]1CCOc1ccc(-c3cncc4ccccc34)cc12` (relative stereo) [Example 29, rel-(4aS,11bS)-10-(isoquinolin-4-yl)-11b-methyl-4a,5,6,11b-tetrahydro-4H-benzo[2,3]oxepino[4,5-d][1,3]thiazin-2-amine, bis(2,2,2-trifluoroacetate)], the IC50 was determined as 4.6 µM.
As for `COc1ccc(-c2cn(-c3ccc4c(c3)[C@@]3(C)N=C(N)SC[C@H]3CCO4)cn2)cc1` (relative stereo) [Example 31, rel-(4aS,11bS)-10-(4-(4-Methoxyphenyl)-1H-imidazol-1-yl)-11b-methyl-4a,5,6,11b-tetrahydro-4H-benzo[2,3]oxepino[4,5-d][1,3]thiazin-2-amine, bis(2,2,2-trifluoroacetate)], the figure is 9.4 µM.
Consider `C[C@]12N=C(N)SC[C@H]1CCCc1cc(F)c(-c3cncnc3)cc12` (relative stereo) [Example 47, rel-(4aS,11bS)-9-fluoro-11b-methyl-10-(pyrimidin-5-yl)-4,4a,5,6,7,11b-hexahydrobenzo[6,7]cyclohepta[1,2-d][1,3]thiazin-2-amine, bis(2,2,2-trifluoroacetate)], for which the IC50 came to 2.7 µM.
As to `C[C@]12N=C(N)SC[C@H]1CCCc1ccc(NC(=O)c3ccc(OC(F)F)cn3)cc12` [Example 46a, N-((4aS,11bS)-2-Amino-11b-methyl-4,4a,5,6,7,11b-hexahydrobenzo[6,7]cyclohepta[1,2-d][1,3]thiazin-10-yl)-5-(difluoromethoxy)picolinamide], the IC50 is 0.027 µM.
With `C[C@]12N=C(N)SC[C@H]1CCOc1ccc(NC(=O)c3ccc(F)cn3)cc12` [Example 36a, N-((4aS,11bS)-2-Amino-11b-methyl-4a,5,6,11b-tetrahydro-4H-benzo[2,3]oxepino[4,5-d][1,3]thiazin-10-yl)-5-fluoropicolinamide], the half-inhibitory concentration (IC50) worked out at 0.017 µM.
On to `C[C@]12N=C(N)SC[C@H]1CCOc1ccc(NC(=O)c3ncc(Cl)cc3Cl)cc12` (relative stereo) [Example 34, rel-N-((4aS,11bS)-2-Amino-11b-methyl-4a,5,6,11b-tetrahydro-4H-benzo[2,3]oxepino[4,5-d][1,3]thiazin-10-yl)-3,5-dichloropicolinamide, 2,2,2-trifluoroacetate salt], for which the IC50 was found to be 0.026 µM.
Consider `C[C@@]12N=C(N)SC[C@@H]1CCc1ccc(NC(=O)c3ccc(Cl)cn3)cc12` [Example 7a, N-((4aR,10bR)-2-Amino-10b-methyl-4a,5,6,10b-tetrahydro-4H-naphtho[1,2-d][1,3]thiazin-9-yl)-5-chloropicolinamide], for which the IC50 was found to be 3.5 µM.
`C[C@]12N=C(N)SC[C@H]1CCCc1ccc(NC(=O)c3ccc(C#N)cn3)cc12` [Example 44b, N-((4aS,11bS)-2-Amino-11b-methyl-4,4a,5,6,7,11b-hexahydrobenzo[6,7]cyclohepta[1,2-d][1,3]thiazin-10-yl)-5-cyanopicolinamide]: the IC50 is 0.021 µM.
As for `C[C@@]12N=C(N)SC[C@@H]1CCCc1ccc(NC(=O)c3ccc(F)cn3)cc12` [Example 43a, N-((4aR,11bR)-2-Amino-11b-methyl-4,4a,5,6,7,11b-hexahydrobenzo[6,7]cyclohepta[1,2-d][1,3]thiazin-10-yl)-5-fluoropicolinamide], the IC50 was 2.5 µM.
